Assay: xn = mol fraction of the nth substance listed
Details: 293.15 K, 92.3 kPa, Liquid; for viscosity: Concentric cylinders viscometry; for speed of sound: Frequency=3 MHz, Single path-length method; for mass density: Vibrating tube method

OCCO [1,2-ethanediol] + O
Details | mass density [kg/m3] | speed of sound [m/s] | viscosity [mPa·s]
x1 = 0.0101 | 1002.83 | 1498.9 | –
x1 = 0.0201 | 1006.96 | 1514.6 | –
x1 = 0.0302 | 1011.02 | 1529.7 | –
x1 = 0.0407 | 1015.07 | 1544.6 | –
x1 = 0.0494 | 1018.4 | – | 1.541
x1 = 0.0506 | 1018.75 | 1558.1 | –
x1 = 0.0605 | 1022.31 | 1570.8 | –
x1 = 0.0704 | 1025.78 | 1583.2 | –
x1 = 0.0801 | 1029.04 | 1594 | –
x1 = 0.0905 | 1032.34 | 1605.6 | –
x1 = 0.0986 | 1034.8 | – | 2.078
x1 = 0.0997 | 1035.3 | 1614.8 | –
x1 = 0.1483 | 1048.46 | – | 2.699
x1 = 0.1493 | 1048.74 | 1656.2 | –
x1 = 0.1985 | 1059.45 | 1684.5 | –
x1 = 0.2072 | 1061.51 | – | 3.517
x1 = 0.2466 | 1068.68 | – | 4.104
x1 = 0.2487 | 1069.2 | 1702.1 | –
x1 = 0.298 | 1076.5 | – | 4.94
x1 = 0.2998 | 1076.8 | 1712.9 | –
x1 = 0.3318 | 1080.9 | 1716.6 | –
x1 = 0.3399 | 1081.8 | – | 5.663
x1 = 0.3921 | 1087.31 | – | 6.621
x1 = 0.3981 | 1087.84 | 1719.4 | –
x1 = 0.4446 | 1091.88 | – | 7.638
x1 = 0.4521 | 1092.39 | 1718.6 | –
x1 = 0.4934 | 1095.4 | 1716.1 | –
x1 = 0.5007 | – | – | 8.782
x1 = 0.5485 | 1098.81 | – | 9.81
x1 = 0.552 | 1099 | 1711.5 | –
x1 = 0.5846 | 1100.79 | 1708.3 | –
x1 = 0.6004 | 1101.51 | – | 10.95
x1 = 0.6451 | 1103.53 | – | 11.97
x1 = 0.6481 | 1103.65 | 1702.1 | –
x1 = 0.6773 | 1104.88 | 1699 | –
x1 = 0.7012 | 1105.75 | – | 13.33
x1 = 0.7421 | 1107.16 | 1692.2 | –
x1 = 0.7435 | 1107.22 | – | 14.35
x1 = 0.7811 | 1108.41 | 1688 | –
x1 = 0.7907 | 1108.69 | – | 15.51
x1 = 0.8497 | – | 1681 | –
x1 = 0.8505 | – | – | 16.94
x1 = 0.89 | 1111.29 | – | 17.91
x1 = 0.9002 | 1111.55 | 1676 | –
x1 = 0.9059 | 1111.66 | 1675.5 | –
x1 = 0.912 | 1111.78 | 1675 | –
x1 = 0.9299 | 1112.18 | 1673.3 | –
x1 = 0.9413 | 1112.43 | 1672.2 | –
x1 = 0.9495 | 1112.62 | 1671.4 | –
x1 = 0.9532 | 1112.69 | – | 19.48
x1 = 0.9546 | 1112.73 | 1671 | –
x1 = 0.9681 | 1112.99 | 1669.9 | –
x1 = 0.9789 | 1113.19 | 1669 | –
x1 = 0.9893 | – | 1667.9 | –
x1 = 1 | – | 1666.5 | 20.61

Source: the NIST ThermoML archive (doi:10.1016/j.jct.2018.02.022)
